Assay results from ChEMBL document CHEMBL3769371, “1-[(2E)-3-Phenylprop-2-enoyl]-1H-benzimidazoles as anticancer agents: synthesis, crystal structure analysis and binding studies of the most potent anticancer molecule with serum albumin” (Medchemcomm, 2015).

What was measured:
[1] = Antiproliferative activity against human IGROV1 cells at 10'5 M; assay type: functional, IGROV-1
[2] = Cytotoxicity against human HOP62 cells assessed as cell growth at 10^-5 M after 48 hrs by SRB assay; assay type: functional; details: HOP-62, 48 h, read-out: Activity
[3] = tested on: CCRF-CEM; assay: Cytotoxicity against human CCRF-CEM cells after 48 hrs by SRB assay; assay type: functional
[4] = tested on: SK-MEL-2; assay: Cytotoxicity against human SK-MEL-2 cells assessed as cell growth at 10^-5 M after 48 hrs by SRB assay; assay type: functional; details: SK-MEL-2, 48 h, read-out: Activity
[5] = Cytotoxicity against human PC3 cells after 48 hrs by SRB assay; assay type: functional; details: PC-3, 48 h
[6] = tested on: ACHN; assay: Cytotoxicity against human ACHN cells after 48 hrs by SRB assay; assay type: functional
[7] = Antiproliferative activity against human MOLT4 cells at 10'5 M; assay type: functional, MOLT-4
[8] = Cytotoxicity against human BT549 cells assessed as cell growth at 10^-5 M after 48 hrs by SRB assay; assay type: functional; details: BT-549, 48 h, read-out: Activity
[9] = Cytotoxicity against human OVCAR3 cells assessed as cell growth at 10^-5 M after 48 hrs by SRB assay; assay type: functional; details: OVCAR-3, 48 h, read-out: Activity
[10] = tested on: Malme-3M; assay: Antiproliferative activity against human MALME-3M cells at 10'5 M; assay type: functional
[11] = Cytotoxicity against human SF268 cells assessed as cell growth at 10^-5 M after 48 hrs by SRB assay; assay type: functional; details: SF-268, 48 h, read-out: Activity
[12] = Cytotoxicity against human HCT15 cells assessed as cell growth at 10^-5 M after 48 hrs by SRB assay; assay type: functional; details: HCT-15, 48 h, read-out: Activity
[13] = Cytotoxicity against human SW620 cells assessed as cell growth at 10^-5 M after 48 hrs by SRB assay; assay type: functional; details: SW-620, 48 h, read-out: Activity
[14] = tested on: A498; assay: Cytotoxicity against human A498 cells assessed as cell growth at 10^-5 M after 48 hrs by SRB assay; assay type: functional; details: A498, 48 h, read-out: Activity
[15] = tested on: MDA-MB-435; assay: Cytotoxicity against human MDA-MB-435 cells assessed as cell growth at 10^-5 M after 48 hrs by SRB assay; assay type: functional; details: MDA-MB-435, 48 h, read-out: Activity
[16] = Cytotoxicity against human UO31 cells assessed as cell growth at 10^-5 M after 48 hrs by SRB assay; assay type: functional; details: UO-31, 48 h, read-out: Activity
[17] = Cytotoxicity against human SKOV3 cells after 48 hrs by SRB assay; assay type: functional; details: SK-OV-3, 48 h
[18] = tested on: A498; assay: Cytotoxicity against human A498 cells after 48 hrs by SRB assay; assay type: functional; details: A498, 48 h
[19] = Cytotoxicity against human RPMI8226 cells after 48 hrs by SRB assay; assay type: functional; details: RPMI-8226, 48 h
[20] = target: T1, Albumin (Homo sapiens, UniProt P02768); assay: Binding affinity to human serum albumin at 0.25 uM at 303 K by fluorescence microscopic analysis in the presence of K+; assay type: ADME; details: isolated protein
T1 sequence (P02768 whole entry): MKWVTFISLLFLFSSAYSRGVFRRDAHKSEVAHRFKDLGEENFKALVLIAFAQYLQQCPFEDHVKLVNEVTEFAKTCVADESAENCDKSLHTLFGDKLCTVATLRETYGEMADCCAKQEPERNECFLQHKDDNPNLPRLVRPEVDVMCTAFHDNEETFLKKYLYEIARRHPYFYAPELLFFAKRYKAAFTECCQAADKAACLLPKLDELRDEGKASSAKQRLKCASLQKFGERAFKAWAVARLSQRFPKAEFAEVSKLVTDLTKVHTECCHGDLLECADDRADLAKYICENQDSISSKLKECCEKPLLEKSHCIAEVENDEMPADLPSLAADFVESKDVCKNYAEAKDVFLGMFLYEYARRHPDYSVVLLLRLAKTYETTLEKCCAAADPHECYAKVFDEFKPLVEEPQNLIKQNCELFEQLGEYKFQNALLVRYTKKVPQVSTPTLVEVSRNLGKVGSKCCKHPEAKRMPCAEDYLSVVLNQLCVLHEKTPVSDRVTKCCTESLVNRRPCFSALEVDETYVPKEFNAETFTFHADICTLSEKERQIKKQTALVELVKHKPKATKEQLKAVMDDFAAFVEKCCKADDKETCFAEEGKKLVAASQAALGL

[21] = target: T1, Albumin; assay: Binding affinity to human serum albumin at 0.25 uM at 303 K by fluorescence microscopic analysis in the presence of Mn2+; assay type: ADME; details: isolated protein
[22] = tested on: HT-29; assay: Cytotoxicity against human HT-29 cells assessed as cell growth at 10^-5 M after 48 hrs by SRB assay; assay type: functional; details: HT-29, 48 h, read-out: Activity
[23] = tested on: M14; assay: Cytotoxicity against human M14 cells assessed as cell growth at 10^-5 M after 48 hrs by SRB assay; assay type: functional; details: M14, 48 h, read-out: Activity
[24] = Cytotoxicity against human HL-60(TB) cells after 48 hrs by SRB assay; assay type: functional; details: HL-60, 48 h
[25] = Cytotoxicity against human BT549 cells after 48 hrs by SRB assay; assay type: functional; details: BT-549, 48 h
[26] = Cytotoxicity against human OVCAR5 cells assessed as cell growth at 10^-5 M after 48 hrs by SRB assay; assay type: functional; details: OVCAR-5, 48 h, read-out: Activity
[27] = Cytotoxicity against human UACC62 cells assessed as cell growth at 10^-5 M after 48 hrs by SRB assay; assay type: functional; details: UACC-62, 48 h, read-out: Activity
[28] = tested on: SK-MEL-5; assay: Cytotoxicity against human SK-MEL-5 cells after 48 hrs by SRB assay; assay type: functional; details: SK-MEL-5, 48 h
[29] = tested on: SK-MEL-5; assay: Cytotoxicity against human SK-MEL-5 cells assessed as cell growth at 10^-5 M after 48 hrs by SRB assay; assay type: functional; details: SK-MEL-5, 48 h, read-out: Activity
[30] = Cytotoxicity against human SF295 cells after 48 hrs by SRB assay; assay type: functional; details: SF-295, 48 h
[31] = read-out: LC50 (the source's name)

Compound: O=C(/C=C/c1ccccc1)n1c(-c2ccc(Cl)cc2)nc2ccccc21
- growth inhibition (GI) [1]: 89.62%
- growth at 10 µM [2]: -48.8%
- GI50 [3]: 0.73 µM
- TGI [3]: 3.45 µM
- CC50 [3, 31]: > 100 µM
- growth at 10 µM [4]: -36%
- GI50 [5]: 1.91 µM
- TGI [5]: 6.73 µM
- CC50 [5, 31]: 36.3 µM
- GI50 [6]: 1.17 µM
- TGI [6]: 2.56 µM
- CC50 [6, 31]: 5.62 µM
- growth inhibition (GI) [7]: 78.07%
- growth at 10 µM [8]: -50.5%
- growth at 10 µM [9]: -57.2%
- growth inhibition (GI) [10]: 84.12%
- growth at 10 µM [11]: -11.8%
- growth at 10 µM [12]: -24.8%
- growth at 10 µM [13]: -55.1%
- growth at 10 µM [14]: -14.6%
- growth at 10 µM [15]: -44.3%
- growth at 10 µM [16]: -39%
- GI50 [17]: 1.49 µM
- TGI [17]: 61.3 µM
- CC50 [17, 31]: > 100 µM
- GI50 [18]: 2.05 µM
- TGI [18]: 7.63 µM
- CC50 [18, 31]: 28.4 µM
- GI50 [19]: 0.61 µM
- TGI [19]: 3.82 µM
- CC50 [19, 31]: > 100 µM
- K [20]: 4.21 ×10³ /mol
- K [21]: 3.85 ×10³ /mol
- growth at 10 µM [22]: -40.6%
- growth at 10 µM [23]: -37.3%
- GI50 [24]: 1.4 µM
- TGI [24]: 4.88 µM
- CC50 [24, 31]: > 100 µM
- GI50 [25]: 1.67 µM
- TGI [25]: 3.22 µM
- CC50 [25, 31]: 6.18 µM
- growth at 10 µM [26]: -48.1%
- growth at 10 µM [27]: -84.7%
- GI50 [28]: 1.49 µM
- TGI [28]: 3.22 µM
- CC50 [28, 31]: 6.92 µM
- growth at 10 µM [29]: -70.6%
- GI50 [30]: 2.1 µM
- TGI [30]: 6.14 µM
- CC50 [30, 31]: 42.5 µM
